Assay: xn = mol fraction of the nth substance listed
Conditions: 101.3 kPa, Liquid

CCCCCCCCCCCC [dodecane] + CCC(C)O
Conditions | mass density, 293.15 K [kg/m3] | mass density, 298.15 K [kg/m3] | mass density, 303.15 K [kg/m3] | speed of sound, 293.15 K [m/s] | speed of sound, 298.15 K [m/s] | speed of sound, 303.15 K [m/s] | viscosity, 293.15 K [mPa·s] | viscosity, 298.15 K [mPa·s] | viscosity, 303.15 K [mPa·s]
x2 = 0 | 748.5 | 744.9 | 741.3 | 1297 | 1278 | 1259 | 1.454 | 1.327 | 1.219
x2 = 0.0486 | 749.3 | 745.6 | 741.9 | 1293 | 1274 | 1255 | 1.44 | 1.314 | 1.204
x2 = 0.0976 | 750.2 | 746.4 | 742.7 | 1289 | 1270 | 1251 | 1.431 | 1.305 | 1.194
x2 = 0.2046 | 752.5 | 748.7 | 744.9 | 1282 | 1263 | 1243 | 1.429 | 1.299 | 1.188
x2 = 0.2956 | 754.9 | 751.1 | 747.2 | 1276 | 1256 | 1237 | 1.432 | 1.297 | 1.179
x2 = 0.3959 | 758.1 | 754.2 | 750.3 | 1268 | 1249 | 1230 | 1.457 | 1.316 | 1.196
x2 = 0.4979 | 762.2 | 758.3 | 754.3 | 1261 | 1242 | 1222 | 1.503 | 1.351 | 1.22
x2 = 0.598 | 767.2 | 763.2 | 759.1 | 1255 | 1235 | 1216 | 1.603 | 1.425 | 1.276
x2 = 0.7021 | 773.9 | 769.8 | 765.6 | 1248 | 1229 | 1209 | 1.798 | 1.576 | 1.392
x2 = 0.8008 | 781.9 | 777.8 | 773.6 | 1242 | 1223 | 1204 | 2.068 | 1.785 | 1.566
x2 = 0.9002 | 792.7 | 788.5 | 784.3 | 1236 | 1217 | 1199 | 2.576 | 2.184 | 1.866
x2 = 0.9504 | 799.1 | 794.9 | 790.7 | 1233 | 1215 | 1196 | 2.989 | 2.508 | 2.122

CCC(C)O (stereo unspecified) [butan-2-ol] + CCCCCCCCCCCC
x1 = 1
Conditions | mass density [kg/m3] | speed of sound [m/s] | viscosity [mPa·s]
293.15 K | 806.8 | 1230 | 3.623
298.15 K | 802.7 | 1212 | 2.995
303.15 K | 798.5 | 1194 | 2.493

CCCCCCCC [octane] + CCC(C)O
x2 = 0
Conditions | mass density [kg/m3] | speed of sound [m/s] | viscosity [mPa·s]
293.15 K | 702.6 | 1193 | 0.538
298.15 K | 698.5 | 1173 | 0.506
303.15 K | 694.5 | 1152 | 0.478
